11 molecules from patent US20090068143A1, “ORALLY EFFECTIVE C[…]” (priority 2005, published 2009) can be followed below.

Assay [1] relates to visceral pain. In words: Visceral pain, acetic acid induced writhing responses. In kind it is in vivo, ICR mice. As to conditions: for inhibition of pain response as compared to untreated animals: 10 mg/kg p.o. in phosphate buffer; for reduction of writhing responses as compared to vehicle treated animals: second study; for effect of antagonist alone on number of writhing responses: 1 mg/kg i.v.; for activity in visceral pain model: fumaric acid up to 5 mg/kg, Gabapentin up to 200 mg/kg, celecoxib up to 10 mg/kg. As for the experimental part: For the i.v. part of the study, compounds were dissolved in CREMOPHOR®:Ethanol and diluted 1:20 in saline prior to injection, fifteen minutes before pain induction. When compounds were delivered per os, they were dissolved in phosphate buffer or in CREMOPHOR®:Ethanol as previously described and administered 1 hour before pain induction. Each treatment group, except for controls comprising at least 30 animals, was composed of at least 6 animals. Fifteen or sixty minutes later, depending on the route selected for drug administration, the mice were injected i.p. with 10 ml/kg of 0.6% acetic acid and the number of visceral pain related behaviors (writhing, stretching, contractions of the abdomen accompanied by an elongation of the body and extension of the hind limbs) is counted over a period of 5 minutes, starting 5 minutes after the acetic acid administration. These visceral pain related behaviors are globally defined as writhing responses (WR). The results are expressed as mean number of writhing responses±SEM. Data were analyzed using analysis of variance (ANOVA) followed by post-hoc Fisher test. A value of p<0.05 was considered to be statistically significant and is indicated on the figure by an asterisk over the relevant treatment group.
The following results were obtained at 2 mg/kg i.v. of test compounds or, in the case of the study performed with cannabinoid receptor antagonists, 1 mg/kg test compound or antagonist alone and 1 mg/kg test compound+1 mg/kg antagonist. In a separate study, it was shown that analgesic activity of compounds of the invention was dose related.

The target in assay [2] is CB1 receptor (Homo sapiens, UniProt P21554). In words: CB1 binding assay.
Assay [3] deals with CB2 receptor (Homo sapiens, UniProt P34972). In words: CB2 binding assay.
Assay [4] concerns inflammatory pain. In words: Inflammatory pain and paw edema, λ carrageenan. In kind it is in vivo, Sprague Dawley rats. The protocol:
Male Sprague Dawley rats (average body weight 200 g, Harlan, Israel) were transiently sedated by placement on dry ice for the duration of the injections. Rats were injected subcutaneously, in the subplantar region of one (right) paw with 0.1 ml of 2% w/v λ Carrageenan in sterile saline. […] Test compounds were administered p.o. by oral gavage immediately after the carrageenan injection as pretreatment. Vehicle (PB) treated animals were used as controls. Before induction of inflammatory pain and three hours after injection, the animals reactions to pain stimuli were tested in two systems. The first stimulus was thermal and assessed by the Plantar Test according to Hargreaves, using Ugo Basile Model 7370. The scale was set to an intensity of 50 arbitrary units. The latency time till the animal lift a paw as a reaction to the thermal stimulus was recorded for both the inflamed and non-inflamed hind paws. The second stimulus was mechanical (tactile) and assessed using a Dynamic Plantar Sesthesiomether (Ugo Basile Model 73400-002). […] Finally, the impact on paw edema was assessed. Paw thickness is measured using a dial thickness gauge (Spring-dial, constant low pressure gauge, Mitutoyo, TG/L-1, 0.00 mm) and paw volume is measured using a plethysmometer (model #7150, Ugo Basile, Italy). At the end of the study, animals were euthanized with an i.p. injection of 100 mg/kg pentobarbitone.
The results are measured as the differences between the two hind paws at time 0 and 3 hours both as ALT, for the latency time in the thermal part of the study, and as ΔForce, for the mechanical part of the study. The paw volume is expressed as percent from vehicle treated animals. Results are expressed as mean±SEM for each treatment group and the differences among those groups are analyzed by analysis of variance (ANOVA) followed by post-hoc Tukey's test. A value of p<0.05 was considered to be statistically significant and is indicated on the figure by an asterisk over the relevant treatment group.

In assay [5] the test system is MBP induced acute EAE. In words: MBP induced acute EAE. In kind it is in vivo, Lewis rats. As to conditions: 30 mg/kg i.v. daily for 5 consecutive days from day of disease induction. The protocol: In the present study, EAE was induced by injection of Myelin Basic Protein (MBP), a method known to model the acute phase of MS. In this model the onset of the disease is observed by the appearance of clinical symptoms about 10 days after induction. The disease progresses and the clinical score increases and peaks around day 15 and spontaneous recovery is observed around day 23 after induction of the disease.
Female Lewis rats (average body weight 130-180 g, Harlan, Israel) were injected s.c. into the hind paws with 25 μg of purified guinea pig myelin basic protein (MBP, Sigma) emulsified in 0.1 ml of Complete Freund's Adjuvant (Difco). Animals were maintained on a 12 hours light/12 hours dark regimen, at a constant temperature of 22° C., with food and water ad libitum. Starting from day 8 following induction, animals were followed up on a daily basis. The results are recorded as clinical score; score of 0 indicates a normal animal with no clinical signs, 0.5 indicates a loss of tonicity in the tail's distal part, 1 indicates whole tail paralysis, 1.5 indicates hind legs weakness in one leg, 2 indicates hind legs weakness in two legs, 2.5 indicates fore legs paralysis in one leg, 3 indicates paralysis of all four legs, 4 indicates complete body paralysis and moribund state and 5 indicates death. The clinical score of the animals is recorded for 15 days following onset of disease until the end of the study 25 days following induction and the area under the curve (AUC) is calculated over this period of time.
Few routes of administration were assessed and the treatments were either administered intravenously (in CE vehicle) or orally by gavage (in PB vehicle) at volume dose of 5 ml/kg.
Results are expressed as mean±SEM and the differences between the treatment groups were analyzed by analysis of variance (ANOVA) followed by Tukey's post hoc test. A value of p<0.05 was considered to be statistically significant and is indicated on the figure by an asterisk over the relevant treatment group.
Compound 18A was dissolved in CREMOPHOR EL®:ethanol and further diluted in physiological buffer prior to i.v. administration. It is now disclosed that compound 18F could be dissolved directly in 80 mM phosphate buffer (pH 6.4) and administered p.o. Compound 18F was administered by oral gavage at doses of 20, 30, 40, 50 and 60 mg/kg to animals showing clinical signs of the disease. Each treatment group comprised at least 10 animals at onset of disease. At some doses, experiments were repeated up to four times.

For assay [6], the system named is iNOS. In words: iNOS gene expression in LPS activated RAW 264.7 macrophages (real-time RT-PCR). Particulars: 10 μM, 1 h pre-treatment, 3 hrs after LPS activation. Format: cell-based, mouse. As for the experimental part: RAW 264.7 macrophages, a mouse cell line (ATCC # TIB 71), were grown in Dulbecco's modified Eagle's medium (DMEM) with 4 mM L-glutamine adjusted to contain 1.5 g/L sodium bicarbonate, 4.5 g/L glucose, and 10% heat inactivated fetal bovine serum. Cells were grown in tissue culture flasks and seeded at appropriate density into 6 wells tissue culture plates. Four million Raw cells in half a milliliter were stimulated with 1 μg/ml Lipopolysaccharide E. coli 055:B5 (DIFCO Laboratories). The mouse macrophages were pre-treated for one hour with controls or 10 μM of test compounds, and later on activated with LPS. RNA samples were extracted from the cells 3 hrs after activation and iNOS gene expression levels were analyzed by real-time RT-PCR as previously described. For western blot analysis, compounds were tested at 1, 5 and 10 μM and cells were harvested 24 hrs after LPS stimulation. Supernatant were collected and NO secretion was analyzed using ELISA. Cells were washed 3 times with cold PBS, scrapped and lyzed in 100 μl cell lysis buffer containing 20 mM HEPES, pH 7.6, 150 mM NaCl, 1.5 mM MgCl2, 0.2 mM EDTA, 1% Triton X-100, 10% glycerol, 1 mM DTT, 1 mM PMSF, 10 μg/ml aprotinin. 5 µg/ml leupeptin, 10 mM p-nitrophenyl phosphate, 100 mM β-glycerophosphate, 1 mM sodium fluoride, and 0.1 μM sodium orthovanadate. Cells were lyzed on ice for 10 minutes before further processing.
The results of this experiment are expressed as fold activation of iNOS over non-activated macrophages, after normalization to cyclophilin A expression. Compound 18A inhibits 63% of iNOS gene expression, and compounds 18B, 18E and 18F inhibit 55%, 25% and 100% respectively. […] This surprising observation strengthen the fact that compounds of the invention, though chemically related, have distinct and unexpected properties.
For orientation: In qPCR the cycle at which signal appears reflects the starting amount.

Like-named read-outs stand apart in the source and are kept apart here. A value given as a limit tells only on which side of the number the result lay.

CB1 receptor, sequence (P21554 whole entry): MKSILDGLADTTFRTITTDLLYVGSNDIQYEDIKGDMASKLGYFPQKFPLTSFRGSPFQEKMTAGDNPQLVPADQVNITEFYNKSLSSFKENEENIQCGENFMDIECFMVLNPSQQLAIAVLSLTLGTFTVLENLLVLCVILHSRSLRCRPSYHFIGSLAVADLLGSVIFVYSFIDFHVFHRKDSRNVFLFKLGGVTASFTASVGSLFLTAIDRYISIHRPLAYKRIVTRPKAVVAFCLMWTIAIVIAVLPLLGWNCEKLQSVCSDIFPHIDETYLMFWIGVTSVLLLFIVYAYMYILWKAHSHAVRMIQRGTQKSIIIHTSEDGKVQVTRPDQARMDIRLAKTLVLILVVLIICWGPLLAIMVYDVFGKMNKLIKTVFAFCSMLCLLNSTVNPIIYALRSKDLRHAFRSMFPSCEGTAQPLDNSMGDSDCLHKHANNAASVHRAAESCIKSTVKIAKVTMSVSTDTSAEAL
CB2 receptor, sequence (P34972 whole entry): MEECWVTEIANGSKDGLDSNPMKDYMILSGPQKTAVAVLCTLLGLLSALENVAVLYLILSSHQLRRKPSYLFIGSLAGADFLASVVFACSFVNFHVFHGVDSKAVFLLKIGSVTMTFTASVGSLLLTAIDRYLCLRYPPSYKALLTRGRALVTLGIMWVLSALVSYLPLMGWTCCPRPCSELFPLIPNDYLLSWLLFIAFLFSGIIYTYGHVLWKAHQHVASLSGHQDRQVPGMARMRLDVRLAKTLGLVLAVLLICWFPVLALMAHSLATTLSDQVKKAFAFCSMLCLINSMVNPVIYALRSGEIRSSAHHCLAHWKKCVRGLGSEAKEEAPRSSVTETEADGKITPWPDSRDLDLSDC

With `CCCCCCC(C)(C)c1cc(OC(=O)CCC(=O)O)c([C@H]2CC(=O)C3CC2C3(C)C)c(OC(=O)CCC(=O)O)c1` (single isomer, unassigned; (-)) [Compound 18C, (−)-4-{4-[1,1-dimethylheptyl]-2,6-disuccinate-phenyl}-6,6-dimethyl-bicyclo[3.1.1]heptan-2-one], the “inhibition of pain response as compared to untreated animals” value (from here on “inhibition … compared to untreated animals”) in assay [1] was 93%. Moreover, the values for the IC50 in assay [2] and in assay [3] were 117 nM and 1.52 nM, respectively.
Regarding `CCCCCCC(C)(C)c1cc(OP(=O)(OCC)OCC)c([C@H]2CC(=O)C3CC2C3(C)C)c(OP(=O)(OCC)OCC)c1` (single isomer, unassigned; (-)) [Compound 18D, (−)-4-{4-[1,1-dimethylheptyl]-2,6-bi-diethylphosphate-phenyl}-6,6-dimethyl-bicyclo[3.1.1]heptan-2-one], the “inhibition of writhing responses as compared to vehicle treated group” value (“inhibition … compared to vehicle treated group” below) in assay [1] (2 mg/kg i.v.) is “minimal effect”. Moreover, the IC50 in assay [2] and in assay [3] was above 1000 nM each time.
On to `CCCCCCC(C)(C)c1cc(OC(=O)/C=C/C(=O)O)c(C2CC(=O)[C@H]3C[C@@H]2C3(C)C)c(OC(=O)/C=C/C(=O)O)c1` (single isomer, unassigned; (-)) [Compound 18G, (−)-4-{4-[1,1-Dimethylheptyl]-2,6-difumarate-phenyl}-6,6-dimethyl-bicyclo[3.1.1]heptan-2-one], for which the “inhibition … compared to vehicle treated group” value in assay [1] (2 mg/kg i.v.) came to 91%. For the same molecule, in assay [1], the “inhibition … compared to untreated animals” value is listed as 56%. In assay [2], this molecule displayed a concentration for half-maximal inhibition (IC50) of 325 nM. For the same molecule, the IC50 in assay [3] was found to be 30 nM. Also, in assay [4] (20 mg/kg p.o.), the “paw volume, percent of vehicle” value stood at 96% and the “reduction of ΔLT, thermal stimulus” value was “ineffective”. Further, the “reduction in Δforce, mechanical stimulus” value in assay [4] (single dose of 20 mg/kg p.o.) came to 8%.
Take `CCCCC(C)(C)c1cc(O)c([C@H]2CC(=O)C3CC2C3(C)C)c(OC(=O)/C=C/C(=O)O)c1` (single isomer, unassigned; (-)) [Compound 18H, (−)-4-{4-[1,1-Dimethylpentyl]-2-fumarate-6-hydroxy-phenyl}-6,6-dimethyl-bicyclo[3.1.1]heptan-2-one]: the “inhibition … compared to vehicle treated group” value in assay [1] (2 mg/kg i.v.) was found to be 38%. Moreover, the “inhibition … compared to untreated animals” value in assay [1] was “not effective”.
Regarding `Oc1cc2c(cc1O)CN(C(=S)NCCc1ccc(Cl)cc1)CCC2` [CPZ, Capsazepine, reference compound], the “reduction of writhing responses as compared to vehicle treated animals” value is “no activity” in assay [1] (0.5 mg/kg i.v.) and 67% in assay [1] (2 mg/kg i.v.).
With `Cc1c(C(=O)NN2CCCCC2)nn(-c2ccc(Cl)cc2Cl)c1-c1ccc(Cl)cc1` [SR141716A, reference compound], in assay [1], the “effect of antagonist alone on number of writhing responses” value is reported as “had not effect”.
As for `Cc1ccc(-c2cc(C(F)(F)F)nn2-c2ccc(S(N)(=O)=O)cc2)cc1` [celecoxib, reference compound], the “activity in visceral pain model” value in assay [1] is “inactive”.
In the case of `O=C(O)/C=C/C(=O)O` [fumaric acid, reference compound], the “activity in visceral pain model” value in assay [1] is “inactive”.
Take `C[C@H]1C[C@@H]2[C@H]([C@@H](O)C[C@@]3(C)[C@H]2CC[C@]3(O)C(=O)CO)[C@@]2(C)C=CC(=O)C=C12` [methylprednisolone, reference compound]: the “reduction in AUC of clinical score” value in assay [5] is 34%.
Turning to “(−)-4-{4-[1,1-Dimethylpentyl]-2-succinate-6-hydroxy-phenyl}-6,6-dimethyl-bicyclo[3.1.1]heptan-2-one [Compound 18E]”, in assay [1] (2 mg/kg i.v.), the “inhibition … compared to vehicle treated group” value was “minimal effect”. In assay [1], the “inhibition … compared to untreated animals” value is “not effective”. The IC50 in assay [2] (read-out: CB1 IC50, displacement of radioligand) was 315 nM; in assay [3] (read-out: CB2 IC50, displacement of radioligand), 7.4 nM. The “inhibition of iNOS gene expression” value in assay [6] is 25%.
For the molecule SR144528 [reference compound], the “effect of antagonist alone on number of writhing responses” value in assay [1] is listed as “had not effect”.

Broadly, the IC50 is the concentration at which inhibition is half-maximal.
